Several values for one entry are separate records, joined by “and”; a condition that tells them apart may be missing. Identical values can stand only once.
Experiments:
[1] = target: SARS-CoV-2 3CLPro (Severe acute respiratory syndrome coronavirus 2, UniProt P0DTD1); experiment: Native-PAGE binding with SARS-CoV-2 viral 3CLPro (Example 8); details: 62.5-1000 μM samples mixed with 40 μM 3CLPro, 4° C., 3 hours
[2] = target: 3CLPro (Severe acute respiratory syndrome coronavirus 2, UniProt P0DTD1); details: cited from earlier work; for IC50: read-out: IC50 (inhibition of 3CLPro), summary of Table 3
[3] = test system: SARS-CoV-2; experiment: SARS-CoV-2 virucidal assay in Vero E6 cells (qPCR of viral genome); assay type: cell-based; details: Vero E6, MOI=0.01, 24 h
[4] = target: 2019-nCoV 3CLPro (Severe acute respiratory syndrome coronavirus 2, UniProt P0DTD1); experiment: 2019-nCoV 3CLPro proteolytic activity, fluorogenic substrate, samples at 3 μM (Example 4); assay type: biochemical; details: estimated from single concentration 3 μM; read-out: approximately half maximal inhibition (IC50) at the concentration

SMILES | binding to SARS-CoV-2 3CLPro by native-PAGE (mobility shift) [1] | IC50 [2] | other results
O=C(O)c1cc(O)c(O)c(O)c1 [GA, gallic acid] | no significant binding | – | –
Cc1cccc(C)c1OCC(=O)N[C@@H](Cc1ccccc1)[C@@H](O)C[C@H](Cc1ccccc1)NC(=O)[C@H](C(C)C)N1CCCNC1=O [Lopinavir] | – | > 100 µM | IC50 of the 3CLPro (result in words) ([2]; 20 μM, Ma et al., 2020): 20 μM, failed to inhibit
Cc1c(O)cccc1C(=O)N[C@@H](CSc1ccccc1)[C@H](O)CN1C[C@H]2CCCC[C@H]2C[C@H]1C(=O)NC(C)(C)C [Nelfinavir] | – | > 100 µM | –
CCC(CC)COC(=O)[C@H](C)N[P@](=O)(OC[C@H]1O[C@@](C#N)(c2ccc3c(N)ncnn23)[C@H](O)[C@@H]1O)Oc1ccccc1 [Remdesivir] | – | – | EC99 ([3]; cell layer): 15 µM and 15.000 µM; EC99 ([3]; supernatant): 15 µM and 15.000 µM
O=C(OC[C@H]1O[C@H](OC(=O)c2cc(O)c(O)c(O)c2)[C@H](OC(=O)c2cc(O)c(O)c(O)c2)[C@@H](OC(=O)c2cc(O)c(O)c(O)c2)[C@@H]1OC(=O)c1cc(O)c(O)c(O)c1)c1cc(O)c(O)c(O)c1 [Sample 1] | – | – | potency estimated from few doses [4]: ~3 µM
O=C(OC[C@H]1O[C@@H](OC(=O)c2cc(O)c(O)c(O)c2)[C@H](OC(=O)c2cc(O)c(O)c(O)c2)[C@@H](OC(=O)c2cc(O)c(O)c(O)c2)[C@@H]1OC(=O)c1cc(O)c(O)c(O)c1)c1cc(O)c(O)c(O)c1 [Sample 2, (2S,3R,4S,5R,6R)-3,4,5-tris(3,4,5-trihydroxybenzoyloxy)-6-((3,4,5-trihydroxybenzoyloxy)methyl)oxan-2-yl 3,4,5-trihydroxybenzoate] | – | – | potency estimated from few doses [4]: ~3 µM
O=C(OC[C@H]1O[C@@H](OC(=O)c2cc(O)c(O)c(OC(=O)c3cc(O)c(O)c(O)c3)c2)[C@H](OC(=O)c2cc(O)c(O)c(OC(=O)c3cc(O)c(O)c(O)c3)c2)[C@@H](OC(=O)c2cc(O)c(O)c(OC(=O)c3cc(O)c(O)c(O)c3)c2)[C@@H]1OC(=O)c1cc(O)c(O)c(OC(=O)c2cc(O)c(O)c(O)c2)c1)c1cc(O)c(O)c(OC(=O)c2cc(O)c(O)c(O)c2)c1 [Sample 4, (2S,3R,4S,5R,6R)-3,4,5-tris(3,4-dihydroxy-5-(3,4,5-trihydroxybenzoyloxy)benzoyloxy)-6-((3,4-dihydroxy-5-(3,4,5-trihydroxybenzoyloxy)benzoyloxy)methyl)oxan-2-yl 3,4-dihydroxy-5-(3,4,5-trihydroxybenzoyloxy)benzoate] | significant binding | – | –
O=C(OC[C@H]1O[C@@H](OC(=O)c2cc(O)c(O)c(OC(=O)c3cc(O)c(O)c(OC(=O)c4cc(O)c(O)c(O)c4)c3)c2)[C@H](OC(=O)c2cc(O)c(O)c(OC(=O)c3cc(O)c(O)c(OC(=O)c4cc(O)c(O)c(O)c4)c3)c2)[C@@H](OC(=O)c2cc(O)c(O)c(OC(=O)c3cc(O)c(O)c(OC(=O)c4cc(O)c(O)c(O)c4)c3)c2)[C@@H]1OC(=O)c1cc(O)c(O)c(OC(=O)c2cc(O)c(O)c(OC(=O)c3cc(O)c(O)c(O)c3)c2)c1)c1cc(O)c(O)c(OC(=O)c2cc(O)c(O)c(OC(=O)c3cc(O)c(O)c(O)c3)c2)c1 [Sample 6, (2S,3R,4S,5R,6R)-6-(((3-((3,4-dihydroxy-5-((3,4,5-trihydroxybenzoyl)oxy)benzoyl)oxy)-4,5-dihydroxybenzoyl)oxy)methyl)tetrahydro-2H-pyran-2,3,4,5-tetrayl tetrakis(3-((3,4-dihydroxy-5-((3,4,5-trihydroxybenzoyl)oxy)benzoyl)oxy)-4,5-dihydroxybenzoate)] | significant binding | – | –
CC(C)(C)NC(=O)[C@@H]1C[C@@H]2CCCC[C@@H]2CN1C[C@@H](O)[C@H](Cc1ccccc1)NC(=O)[C@H](CC(N)=O)NC(=O)c1ccc2ccccc2n1 [Saquinavir] | – | > 100 µM | –
CCC[C@@]1(CCc2ccccc2)CC(O)=C([C@H](CC)c2cccc(NS(=O)(=O)c3ccc(C(F)(F)F)cn3)c2)C(=O)O1 [Tipranavir] | – | > 100 µM | –

— patent US11779561B2, “Compounds and pharmaceutical uses thereof” (priority 2020, dated 2023)
